Measurements taken from the supplement of paper PMC10307832.

Compound: N[C@@H]1CCCN(c2c(/C=C3\SC(=O)NC3=O)cccc2-c2ccccc2)C1 [AZD1208] + C[C@@H](Oc1cc(-c2cnn(C3CCNCC3)c2)cnc1N)c1c(Cl)ccc(F)c1Cl [Crizotinib] (partner 1 µM)
Assay: relative viability (nuclei count vs DMSO), 5 days (fraction); higher = more cells survive
Conditions: first compound 2.53 µM
Outline: (§1)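 Lung cancer cell lines were pin-tool dosed in 1536-well plates on the day after seeding, with either a lone drug or a fixed anchor-drug dose plus five library-drug doses (not always all listed) in √10 steps. Nuclei were counted on 4× images after 5 days. Relative viability is the ratio of treated-well to vehicle-well nuclei counts, with each value a median of duplicate plates.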

Row | Cell Line | relative viability
1 | ABC-1 | 1.09
2 | NCI-H358 | 0.566

Same assay, conditions: first compound 8 µM

Row | Cell Line | relative viability
3 | NCI-H838 | 0.758
4 | NCI-H1650 | 0.71
5 | EBC-1 | 0.183
6 | NCI-H1703 | 0.461
7 | NCI-H2009 | 0.979
8 | NCI-H1993 | 0.728
9 | NCI-H2228 | 0.427
10 | Calu-6 | 0.758
11 | LK-2 | 0.252
12 | SK-MES-1 | 0.78
13 | IA-LM | 0.748
14 | NCI-H2170 | 0.836
15 | A549 | 0.541
16 | NCI-H1299 | 0.963
17 | CAL-12T | 0.471
18 | NCI-H1563 | 0.8
19 | NCI-H1944 | 0.827
20 | ABC-1 | 1.11
21 | NCI-H358 | 0.438

Compound: CN1CCN(CC1)C2=CC(=C(C=C2)NC3=NC(=C(S3)C(=O)C4=C(C=CC=C4Cl)Cl)N)OC [XMD14-99] + CC(=O)Nc1cccc(-n2c(=O)n(C3CC3)c(=O)c3c(Nc4ccc(I)cc4F)n(C)c(=O)c(C)c32)c1 [Trametinib] (partner 0.02 µM)
Assay: as above
Conditions: first compound 0.08 µM
Outline: as §1

Row | Cell Line | relative viability
22 | NCI-H522 | 0.783
23 | NCI-H838 | 0.502
24 | NCI-H1650 | 0.642
25 | NCI-H2009 | 0.258
26 | NCI-H1993 | 0.593
27 | NCI-H2228 | 0.612
28 | LK-2 | 0.571
29 | NCI-H2342 | 0.885
30 | SK-MES-1 | 0.524
31 | NCI-H2170 | 0.924
32 | SW 900 | 0.779
33 | NCI-H1648 | 0.613
34 | NCI-H1395 | 0.992
35 | CAL-12T | 0.358
36 | NCI-H1793 | 0.462
37 | NCI-H1944 | 0.446
38 | NCI-H358 | 0.118

Same assay, conditions: first compound 0.8 µM

Row | Cell Line | relative viability
39 | NCI-H522 | 0.901
40 | NCI-H838 | 0.486
41 | NCI-H1650 | 0.738
42 | NCI-H2009 | 0.317
43 | NCI-H1993 | 0.522
44 | NCI-H2228 | 0.534
45 | LK-2 | 0.738
46 | NCI-H2342 | 0.882
47 | SK-MES-1 | 0.564
48 | NCI-H2170 | 0.873
49 | SW 900 | 0.876
50 | NCI-H1648 | 0.46
51 | NCI-H1395 | 1.05
52 | CAL-12T | 0.305
53 | NCI-H1793 | 0.38
54 | NCI-H1944 | 0.374
55 | NCI-H358 | 0.179

Same assay, conditions: first compound 2.53 µM

Row | Cell Line | relative viability
56 | NCI-H522 | 0.75
57 | NCI-H838 | 0.433
58 | NCI-H1650 | 0.542
59 | NCI-H2009 | 0.254
60 | NCI-H1993 | 0.614
61 | NCI-H2228 | 0.431
62 | LK-2 | 0.706
63 | NCI-H2342 | 0.949
64 | SK-MES-1 | 0.622
65 | NCI-H2170 | 0.828
66 | SW 900 | 0.752
67 | NCI-H1648 | 0.459
68 | NCI-H1395 | 0.958
69 | CAL-12T | 0.268
70 | NCI-H1793 | 0.39
71 | NCI-H1944 | 0.381
72 | NCI-H358 | 0.134

Same assay, conditions: first compound 8 µM

Row | Cell Line | relative viability
73 | NCI-H522 | 0.85
74 | NCI-H838 | 0.357
75 | NCI-H1650 | 0.503
76 | NCI-H2009 | 0.185
77 | NCI-H1993 | 0.54
78 | NCI-H2228 | 0.209
79 | LK-2 | 0.646
80 | NCI-H2342 | 0.848
81 | SK-MES-1 | 0.392
82 | NCI-H2170 | 0.786
83 | SW 900 | 0.756
84 | NCI-H1648 | 0.466
85 | NCI-H1395 | 1
86 | CAL-12T | 0.241
87 | NCI-H1793 | 0.268
88 | NCI-H1944 | 0.338
89 | NCI-H358 | 0.127

Compound: CN1CCN(CC1)C2=CC(=C(C=C2)NC3=NC(=C(S3)C(=O)C4=C(C=CC=C4Cl)Cl)N)OC [XMD14-99] + CC(C)C[C@H](NC(=O)[C@H](Cc1ccccc1)NC(=O)c1cnccn1)B(O)O [Bortezomib] (partner 0.002 µM)
Assay: as above
Conditions: first compound 0.08 µM
Outline: as §1

Row | Cell Line | relative viability
90 | NCI-H838 | 0.826
91 | NCI-H1650 | 0.248
92 | EBC-1 | 0.57
93 | NCI-H1703 | 0.334
94 | NCI-H2009 | 1.05
95 | NCI-H1993 | 1.14
96 | NCI-H2228 | 1.17
97 | Calu-6 | 0.944
98 | IA-LM | 0.783
99 | NCI-H1299 | 1.09
100 | CAL-12T | 1.07
101 | NCI-H1563 | 0.885
102 | ABC-1 | 0.296

Same assay, conditions: first compound 0.8 µM

Row | Cell Line | relative viability
103 | NCI-H838 | 0.828
104 | NCI-H1650 | 0.221
105 | EBC-1 | 0.503
106 | NCI-H1703 | 0.235
107 | NCI-H2009 | 0.968
108 | NCI-H1993 | 0.956
109 | NCI-H2228 | 0.974
110 | Calu-6 | 0.875
111 | IA-LM | 0.79
112 | NCI-H1299 | 1
113 | CAL-12T | 0.954
114 | NCI-H1563 | 1.07
115 | ABC-1 | 0.343

Same assay, conditions: first compound 2.53 µM

Row | Cell Line | relative viability
116 | NCI-H838 | 0.674
117 | NCI-H1650 | 0.187
118 | EBC-1 | 0.384
119 | NCI-H1703 | 0.268
120 | NCI-H2009 | 0.919
121 | NCI-H1993 | 0.92
122 | NCI-H2228 | 0.871
123 | Calu-6 | 0.85
124 | IA-LM | 0.47
125 | NCI-H1299 | 0.944
126 | CAL-12T | 0.899
127 | NCI-H1563 | 0.85
128 | ABC-1 | 0.346

Same assay, conditions: first compound 8 µM

Row | Cell Line | relative viability
129 | NCI-H838 | 0.491
130 | NCI-H1650 | 0.168
131 | EBC-1 | 0.285
132 | NCI-H1703 | 0.211
133 | NCI-H2009 | 0.682
134 | NCI-H1993 | 0.864
135 | NCI-H2228 | 0.337
136 | Calu-6 | 0.598
137 | IA-LM | 0.394
138 | NCI-H1299 | 0.83
139 | CAL-12T | 0.634
140 | NCI-H1563 | 0.686
141 | ABC-1 | 0.281
